Measured values as given in the NIST ThermoML archive (doi:10.1021/je9010568).

How the values were obtained:
[1] = Liquid
[2] = φn = volume fraction of the nth substance listed; details: Liquid, φ1 = 0.75

OCCO [1,2-ethanediol]
[1]
Details	specific volume [m3/kg]
273.15 K, 100 kPa, Vibrating tube method	0.0008871
274.14 K, 100 kPa, Vibrating tube method	0.0008876
275.14 K, 100 kPa, Vibrating tube method	0.0008882
276.15 K, 100 kPa, Vibrating tube method	0.0008887
277.15 K, 100 kPa, Vibrating tube method	0.0008893
278.15 K, 100 kPa, Vibrating tube method	0.0008898
279.15 K, 100 kPa, Vibrating tube method	0.0008904
280.15 K, 100 kPa, Vibrating tube method	0.0008909
281.15 K, 100 kPa, Vibrating tube method	0.0008915
282.15 K, 100 kPa, Vibrating tube method	0.000892
283.15 K, 100 kPa, Vibrating tube method	0.0008926
284.15 K, 100 kPa, Vibrating tube method	0.0008931
285.15 K, 100 kPa, Vibrating tube method	0.0008937
286.15 K, 100 kPa, Vibrating tube method	0.0008942
287.15 K, 100 kPa, Vibrating tube method	0.0008948
288.09 K, 99800 kPa, Bellows volumetry	0.0008687
288.12 K, 348700 kPa, Bellows volumetry	0.0008241
288.15 K, 100 kPa, Vibrating tube method	0.0008954
288.15 K, 299700 kPa, Bellows volumetry	0.0008313
288.15 K, 349400 kPa, Bellows volumetry	0.0008238
288.16 K, 100 kPa, Vibrating tube method	0.0008954
288.17 K, 150000 kPa, Bellows volumetry	0.0008579
288.17 K, 248800 kPa, Bellows volumetry	0.0008395
288.17 K, 298500 kPa, Bellows volumetry	0.0008314
288.17 K, 350400 kPa, Bellows volumetry	0.0008236
288.18 K, 48900 kPa, Bellows volumetry	0.0008815
288.18 K, 99800 kPa, Bellows volumetry	0.0008684
288.18 K, 149400 kPa, Bellows volumetry	0.0008577
288.18 K, 198100 kPa, Bellows volumetry	0.0008485
288.18 K, 299200 kPa, Bellows volumetry	0.0008312
288.19 K, 49200 kPa, Bellows volumetry	0.0008811
288.19 K, 249300 kPa, Bellows volumetry	0.0008392
288.2 K, 248600 kPa, Bellows volumetry	0.0008396
288.21 K, 100 kPa, Vibrating tube method	0.0008954
288.21 K, 49000 kPa, Bellows volumetry	0.0008815
288.21 K, 199700 kPa, Bellows volumetry	0.0008479
288.22 K, 100 kPa, Vibrating tube method	0.0008954
288.23 K, 149400 kPa, Bellows volumetry	0.000858
288.24 K, 99600 kPa, Bellows volumetry	0.0008688
288.24 K, 199700 kPa, Bellows volumetry	0.0008482
289.15 K, 100 kPa, Vibrating tube method	0.0008959
290.15 K, 100 kPa, Vibrating tube method	0.0008965
291.15 K, 100 kPa, Vibrating tube method	0.000897
292.15 K, 100 kPa, Vibrating tube method	0.0008976
293.15 K, 100 kPa, Vibrating tube method	0.0008982
294.15 K, 100 kPa, Vibrating tube method	0.0008987
295.15 K, 100 kPa, Vibrating tube method	0.0008993
296.15 K, 100 kPa, Vibrating tube method	0.0008998
297.15 K, 100 kPa, Vibrating tube method	0.0009004
298.16 K, 100 kPa, Vibrating tube method	0.000901
299.16 K, 100 kPa, Vibrating tube method	0.0009016
300.16 K, 100 kPa, Vibrating tube method	0.0009021
301.16 K, 100 kPa, Vibrating tube method	0.0009027
302.16 K, 100 kPa, Vibrating tube method	0.0009033
303.15 K, 100 kPa, Vibrating tube method	0.0009038
304.16 K, 100 kPa, Vibrating tube method	0.0009044
305.15 K, 100 kPa, Vibrating tube method	0.000905
306.15 K, 100 kPa, Vibrating tube method	0.0009056
307.15 K, 100 kPa, Vibrating tube method	0.0009061
308.15 K, 100 kPa, Vibrating tube method	0.0009067
309.15 K, 100 kPa, Vibrating tube method	0.0009073
310.15 K, 100 kPa, Vibrating tube method	0.0009079
311.15 K, 100 kPa, Vibrating tube method	0.0009085
312.15 K, 100 kPa, Vibrating tube method	0.0009091
313.15 K, 100 kPa, Vibrating tube method	0.0009097

OCCO [1,2-ethanediol] + O
[2]
Details	specific volume [m3/kg]
273.15 K, 100 kPa, Vibrating tube method	0.0009024
274.15 K, 100 kPa, Vibrating tube method	0.0009029
275.15 K, 100 kPa, Vibrating tube method	0.0009035
276.15 K, 100 kPa, Vibrating tube method	0.000904
277.15 K, 100 kPa, Vibrating tube method	0.0009045
278.15 K, 100 kPa, Vibrating tube method	0.0009051
279.15 K, 100 kPa, Vibrating tube method	0.0009056
280.15 K, 100 kPa, Vibrating tube method	0.0009061
281.15 K, 100 kPa, Vibrating tube method	0.0009067
282.15 K, 100 kPa, Vibrating tube method	0.0009072
283.16 K, 100 kPa, Vibrating tube method	0.0009078
284.16 K, 100 kPa, Vibrating tube method	0.0009083
285.16 K, 100 kPa, Vibrating tube method	0.0009088
286.16 K, 100 kPa, Vibrating tube method	0.0009094
287.16 K, 100 kPa, Vibrating tube method	0.0009099
288.09 K, 100 kPa, Vibrating tube method	0.0009104
288.09 K, 148600 kPa, Bellows volumetry	0.0008753
288.1 K, 98200 kPa, Bellows volumetry	0.0008859
288.11 K, 100 kPa, Vibrating tube method	0.0009104
288.11 K, 49700 kPa, Bellows volumetry	0.0008965
288.12 K, 98200 kPa, Bellows volumetry	0.0008844
288.13 K, 100 kPa, Vibrating tube method	0.0009105
288.13 K, 49400 kPa, Bellows volumetry	0.0008974
288.13 K, 349300 kPa, Bellows volumetry	0.0008385
288.14 K, 149800 kPa, Bellows volumetry	0.0008734
288.14 K, 199000 kPa, Bellows volumetry	0.0008635
288.15 K, 199100 kPa, Bellows volumetry	0.0008654
288.16 K, 100 kPa, Vibrating tube method	0.0009105
288.16 K, 248700 kPa, Bellows volumetry	0.0008558
288.17 K, 299900 kPa, Bellows volumetry	0.0008461
288.19 K, 250600 kPa, Bellows volumetry	0.0008544
288.29 K, 299600 kPa, Bellows volumetry	0.0008463
288.31 K, 199200 kPa, Bellows volumetry	0.0008639
288.31 K, 350200 kPa, Bellows volumetry	0.0008386
288.32 K, 251000 kPa, Bellows volumetry	0.0008545
288.33 K, 49300 kPa, Bellows volumetry	0.0008968
288.33 K, 149300 kPa, Bellows volumetry	0.0008737
288.33 K, 300300 kPa, Bellows volumetry	0.0008464
288.33 K, 348300 kPa, Bellows volumetry	0.0008391
288.36 K, 100900 kPa, Bellows volumetry	0.0008842
289.16 K, 100 kPa, Vibrating tube method	0.000911
290.16 K, 100 kPa, Vibrating tube method	0.0009116
291.16 K, 100 kPa, Vibrating tube method	0.0009121
292.15 K, 100 kPa, Vibrating tube method	0.0009127
293.15 K, 100 kPa, Vibrating tube method	0.0009132
294.15 K, 100 kPa, Vibrating tube method	0.0009138
295.16 K, 100 kPa, Vibrating tube method	0.0009143
296.16 K, 100 kPa, Vibrating tube method	0.0009149
297.15 K, 100 kPa, Vibrating tube method	0.0009155
298.15 K, 100 kPa, Vibrating tube method	0.000916
299.15 K, 100 kPa, Vibrating tube method	0.0009166
300.16 K, 100 kPa, Vibrating tube method	0.0009172
301.16 K, 100 kPa, Vibrating tube method	0.0009177
302.16 K, 100 kPa, Vibrating tube method	0.0009183
303.16 K, 100 kPa, Vibrating tube method	0.0009189
304.16 K, 100 kPa, Vibrating tube method	0.0009195
305.16 K, 100 kPa, Vibrating tube method	0.00092
306.16 K, 100 kPa, Vibrating tube method	0.0009206
307.15 K, 100 kPa, Vibrating tube method	0.0009212
308.15 K, 100 kPa, Vibrating tube method	0.0009218
309.15 K, 100 kPa, Vibrating tube method	0.0009223
310.15 K, 100 kPa, Vibrating tube method	0.0009229
311.15 K, 100 kPa, Vibrating tube method	0.0009235
312.15 K, 100 kPa, Vibrating tube method	0.0009241
313.15 K, 100 kPa, Vibrating tube method	0.0009247
